According to US20240051978A1, “3-CYCLIC AMINE-INDOLE DERIVATIVES AS SEROTONERGIC AGENTS FOR THE TREATMENT OF CNS DISORDERS” (MINDSET PHARMA INC., priority 2020, published 2024):

What was measured:
[1] = biological target: human 5-HT2A (h5-HT2A) receptor (Homo sapiens (Human), UniProt P28223); assay: FLIPR assay, human 5-HT2A receptor under agonist mode; type: cell-based; details: FLIPR calcium
Protocol: I. Assessment of the Activated Effect of Exemplary Compounds of Formula I Targeting on Human 5-HT2A (h5-HT2A) Receptor Under Agonist Mode:
1. the Cells were cultured in cell culture medium (DMEM containing 10% FBS 1×penicillin-streptomycin 300 μg/ml G418 and 100 μg/ml hygromycin B) at 37° C., 5% (v/v) CO2.
2. One day before the assays, the cells were detached using TrypLE™ Express and cells were counted using cell counter.
3. 20000 cells/well were seeded in 30 μl/well culture medium to a 384-well cell plate and the cells were incubated overnight at 37° C., 5% (v/v) CO2.
4. On the assay day, 2× dye solution was prepared following the manual of the FLIPR® Calcium 6 Assay Kit: i. The dye was diluted with assay buffer(20 mM HEPES in 1×HBSS, PH7.4); ii. Probenecid was added to the final concentration of 5 mM; iii. Vortex vigorously for 1-2 minutes.
5. Medium was removed from cell plate by flicking the cell plate on towel papers.
6. 10 μl of assay buffer and 10 μl of 2× dye solution was added to each well of the cell plate.
7. The cell plate was placed on plate shaker, and the plate was agitated at 600 rpm for 2 minutes. The plate was incubated at 37° C. for 2 hours followed by additional 15-minute incubation at 25° C.
8. 3× compound in assay buffer was prepared: a. reference compounds were diluted to required concentration with DMSO. Compounds were added to a 384-well compound plate; b. Serial dilutions were performed; c. 10 mM test compounds were added to the compound plate, 3-fold serial dilutions were performed. d. […] 20 μl/well assay buffer was added to the compound plate; f. The plate was mixed on plate shaker for 2 mins;
i. The normalized fluorescence reading (RFU) was calculated as shown below, wherein Fmax and Fmin stand for maximum and minimum of calcium signal during defined time window: RFU=Fmax−Fmin
ii. The percentage activation was calculated by using following equation: […]
iii. EC50 was calculated by fitting % activation against log of compound concentrations with Hill equation using XLfit.

human 5-HT2A receptor = human 5-HT2A receptor (Homo sapiens (Human), UniProt P28223); assay: Radioligand binding assay ([3H]-ketanserin) on human 5-HT2A receptor; details: [3H]-ketanserin competition; read-out: h5-HT2A IC50
Protocol: • i. The assay buffer was prepared following the table below;
• ii. 8 doses of reference and exemplary test compounds were prepared starting from 10 mM stock solution as requested by 5-fold serial dilutions with 100%; • iii. (v/v) DMSO was prepared: a. 50 μl/well of 0.5% (v/v) PEI was added to UniFilter-96 GF/B plates. The plates were sealed and incubates at 4° C. for 3 hrs; b. After incubation, the plates were washed 3 times with ice-cold wash buffer (50 mM Tris, pH7.4); • iv. Preparation of assay plates: a. Cell membrane was diluted with assay buffer and 330 μl/well was added to 96 round deep well plates to reach a concentration of 20 μg/well; b. 8 concentrations of reference or exemplary test compounds were prepared and added 110 μl/well to 96 round deep well plates; c. [3H]-ketanserin was diluted with assay buffer to 5 nM (5× final concentration) and added 110 μl/well to 96 round deep well plates. • v. The plate were centrifuged at 1000 rpm for 30 secs and then agitated at 600 rpm, R.T. for 5 min. • vi. The plates were sealed and incubated at 27° C. for 90 min. • vii. The incubation was stopped by vacuum filtration onto GF/B filter plates followed by 4 times washing with ice-cold wash buffer (50 mM Tris, pH7.4). • vii. […] The filter plates were sealed and 40 μl/well of scintillation cocktail added. • x. The plate was read by using a Microbeta2 microplate counter.
For reference and exemplary test compounds, the results are expressed as % Inhibition, using the normalization equation: N=100−100×(U−C2)/(C1−C2), where U is the unknown value, C1 is the average of high controls, and C2 is the average of low controls. The IC50 was determined by fitting percentage of inhibition as a function of compound concentrations with Hill equation using XLfit.

[2] = Liver microsomes stability, human; details: for Predicted hepatic CL: Human liver microsomes, with NADPH; for Remaining Percentage (%) 0 min / Remaining Percentage (%) 60 min: Human; for CLint scaled at 2 μM / half-life at 2 μM / microsomal CLint at 2 μM: human, microsomes
Protocol: (§1) The objective of this study was to estimate in vitro metabolic stability of 1-12 in pooled human and male mouse liver microsomes. The concentrations of parent compounds in reaction systems were evaluated by LC-MS/MS for estimating the stability in pooled human and male mouse liver microsomes. The in vitro intrinsic clearances of test compounds were determined as well.
(§2) A master solution in the “Incubation Plate” containing phosphate buffer, ultra-pure H2O, MgCl2 solution and liver microsomes was made according to Table 3. The mixture was pre-warmed at 37° C. water bath for 5 minutes.
(§3) 40 μL of 10 mM NADPH solution was added to each well. The final concentration of NADPH was 1 mM. The negative control samples were prepared by replacing NADPH with 40 μL of ultra-pure H2O. Samples were prepared in duplicate. Negative controls were prepared in singlet.
(§4) The reaction was started with the addition of 4 μL of 200 μM exemplary test compounds or control compounds to each master solution to get the final concentration of 2 μM. This study was performed in duplicate.
(§5) Aliquots of 50 μL were taken from the reaction solution at 0, 15, 30, 45 and 60 minutes. The reaction solutions were stopped by the addition of 4 volumes of cold methanol with IS (100 nM alprazolam, 200 nM imipramine, 200 nM labetalol and 2 μM ketoprofen). Samples were centrifuged at 3,220 g for 40 minutes. Aliquot of 90 μL of the supernatant was mixed with 90 μL of ultra-pure H2O and then was used for LC-MS/MS analysis.
(§6) LC/MS analysis was performed for all samples from this study using a Shimadzu liquid chromatograph separation system equipped with degasser DUG-20A5R; solvent delivery unit LC-30AD; system controller SIL-30AC; column oven CTO-30A; CTC Analytics HTC PAL System; Mass spectrometric analysis was performed using an Triple Quad™ 5500 instrument.
(§7) All calculations were carried out using Microsoft Excel. Peak area ratios of test compound to internal standard (listed in the below table) were determined from extracted ion chromatograms.
(§8) All calculations were carried out using Microsoft Excel. Peak areas were determined from extracted ion chromatograms. The slope value, k, was determined by linear regression of the natural logarithm of the remaining percentage of the parent drug vs. incubation time curve.
(§9) The in vitro half-life (in vitro t½) was determined from the slope value:
(§10) Conversion of the in vitro t½ (min) into the in vitro intrinsic clearance (in vitro CLint, in μL/min/mg proteins) was done using the following equation (mean of duplicate determinations): […]

[3] = Liver microsomes stability, rat; details: for Predicted hepatic CL: Rat liver microsomes, with NADPH; for Remaining Percentage (%) 0 min / Remaining Percentage (%) 60 min: Rat; for CLint scaled at 2 μM / half-life at 2 μM / microsomal CLint at 2 μM: rat, microsomes
Protocol: as §1, §2, §3, §4, §5, §6, §7, §8, §9, §10

[4] = Liver microsomes stability, mouse; details: for Remaining Percentage (%) 0 min / Remaining Percentage (%) 60 min: Mouse; for CLint scaled at 2 μM / half-life at 2 μM / microsomal CLint at 2 μM: male, mouse, microsomes
Protocol: as §1, §2, §3, §4, §5, §6, §7, §8, §9, §10

[5] = Mouse liver microsomes, with NADPH

Compound	EC50 [1] [µM]	IC50 (human 5-HT2A receptor) [µM]	Predicted hepatic CL [2] [L/h/kg]	Remaining Percentage (%) 0 min ([2]; With NADPH) [%]	Remaining Percentage (%) 60 min ([2]; With NADPH) [%]	Remaining Percentage (%) 0 min ([2]; Without NADPH) [%]	Remaining Percentage (%) 60 min ([2]; Without NADPH) [%]	CLint scaled at 2 μM [2] [L/h/kg]	half-life at 2 μM [2] [h]	Predicted hepatic CL [3] [L/h/kg]	Remaining Percentage (%) 0 min ([3]; With NADPH) [%]	Remaining Percentage (%) 60 min ([3]; With NADPH) [%]	Remaining Percentage (%) 0 min ([3]; Without NADPH) [%]	Remaining Percentage (%) 60 min ([3]; Without NADPH) [%]	CLint scaled at 2 μM [3] [L/h/kg]	Predicted hepatic CL [4, 5] [L/h/kg]	Remaining Percentage (%) 0 min ([4]; With NADPH) [%]	Remaining Percentage (%) 60 min ([4]; With NADPH) [%]	Remaining Percentage (%) 0 min ([4]; Without NADPH) [%]	Remaining Percentage (%) 60 min ([4]; Without NADPH) [%]	also measured
[2H]C1([2H])CC(c2c[nH]c3cccc(O)c23)C([2H])([2H])N1 (stereo not drawn) [Compound I-33, 3-(pyrrolidin-3-yl-2,2,5,5-d4)-1H-indol-4-ol]	> 10	< 1	0.0744	100.00	96.89	100.00	115.64	0.0792	22	0.909	100.00	70.49	100.00	105.30	1.25	0	100.00	103.45	100.00	118.32	microsomal CLint at 2 μM [2]: 1.05 µL/min/mg; half-life at 2 μM [3]: 1.98 h; microsomal CLint at 2 μM [3]: 11.7 µL/min/mg; T1/2 (min) ([4]; Mouse liver microsomes, with NADPH, 2 μM): ∞
CN(C)CCc1c[nH]c2cccc(O)c12 [Psilocin, 4-hydroxy-N,N-dimethyltryptamine, reference compound]			0.518	100.00	70.16	100.00	87.13	0.889		1.112	100.00	62.68	100.00	96.98	1.67	1.74	100.00	74.57	100.00	91.98	CLint scaled at 2 μM [4]: 2.57 L/h/kg
[2H]C([2H])N1C([2H])([2H])CC(c2c[nH]c3cccc(F)c23)C1([2H])[2H] (stereo not drawn) [Compound I-41, 4-fluoro-3-(1-(methyl-d2)pyrrolidin-3-yl-2,2,5,5-d4)-1H-indole]	1 to 10	1 to 10																			
[2H]C1([2H])CC(c2c[nH]c3cccc(O)c23)C([2H])([2H])N1C (stereo not drawn) [Compound I-34, 3-(1-methylpyrrolidin-3-yl-2,2,5,5-d4)-1H-indol-4-ol]	< 1	1 to 10	0.241	100.00	88.74	100.00	80.14	0.299	5.8	1.394	100.00	51.06	100.00	85.53	2.41	2.282	100.00	63.66	100.00	96.60	microsomal CLint at 2 μM [2]: 3.98 µL/min/mg; half-life at 2 μM [3]: 1.03 h; microsomal CLint at 2 μM [3]: 22.4 µL/min/mg; CLint scaled at 2 μM [4]: 3.95 L/h/kg; half-life at 2 μM [4]: 1.53 h; microsomal CLint at 2 μM [4]: 15.1 µL/min/mg
[2H]C([2H])N1CCC(c2c[nH]c3cccc(OCc4ccccc4)c23)C1 (single isomer, unassigned) [Compound I-36, 4-(benzyloxy)-3-(1-(methyl-d2)pyrrolidin-3-yl)-1H-indole]	> 10	> 10	0.7506	100.00	46.97	100.00	112.84	1.9	0.917	2.014	100.00	23.82	100.00	95.23	5.14	4.497	100.00	4.62	100.00	101.31	microsomal CLint at 2 μM [2]: 25.2 µL/min/mg; half-life at 2 μM [3]: 0.483 h; microsomal CLint at 2 μM [3]: 47.8 µL/min/mg; CLint scaled at 2 μM [4]: 26.9 L/h/kg; half-life at 2 μM [4]: 0.225 h; microsomal CLint at 2 μM [4]: 102 µL/min/mg
